Data reported in patent US20240158394A1, “NEK7 INHIBITORS” (Halia Therapeutics, Inc., priority 2022, published 2024).

Target: full-length recombinant human NEK7 (Homo sapiens (Human), UniProt Q8TDX7)
Assay: NEK7 Enzymatic Assay
Format: biochemical
Conditions: casein substrate, [33P]-ATP, 2 hours at room temperature
Procedure: Casein substrate (from bovine milk, hydrolyzed and partially dephosphorylated mixture of α, β and κ caseins, obtained from Sigma Aldrich, catalogue #C4765, diluted in distilled water to a final concentration of 1 mg/mL) and full-length recombinant human NEK7 (expressed by baculovirus in Sf9 insect cells using a N-terminal GST tag, obtained from SignalChem, catalogue #N09-10G, 0.1 μg/μL) were mixed in assay buffer (20 mM HEPES pH 7.5, 10 mM MgCl2, 1 mM EGTA, 0.02% Brij35, 0.02 mg/mL BSA, 0.1 mM Na3VO4, 2 mM DTT, 1% DMSO). Compounds of interest (serial 3-fold dilution in DMSO from 10 μM to 0.5 nM) or vehicle (1% DMSO) were dispensed into the kinase reaction mixture by Acoustic technology (Echo550; nanoliter range). After incubation at room temperature for 20 minutes, the kinase reaction was initiated by addition of [^33P]-ATP (specific activity 10 μCi/μL) and the mixture was incubated at room temperature for 2 hours. The reaction was then stopped by spotting the reaction mixture on strips of phosphocellulose P81 paper. Following washing, the radioactivity of the P81 paper was measured and kinase activity data were expressed as the percent remaining kinase activity in test samples compared to vehicle reactions. IC50 values and curve fits were obtained using Prism (GraphPad Software).

Sequence of full-length recombinant human NEK7 (Q8TDX7 whole entry): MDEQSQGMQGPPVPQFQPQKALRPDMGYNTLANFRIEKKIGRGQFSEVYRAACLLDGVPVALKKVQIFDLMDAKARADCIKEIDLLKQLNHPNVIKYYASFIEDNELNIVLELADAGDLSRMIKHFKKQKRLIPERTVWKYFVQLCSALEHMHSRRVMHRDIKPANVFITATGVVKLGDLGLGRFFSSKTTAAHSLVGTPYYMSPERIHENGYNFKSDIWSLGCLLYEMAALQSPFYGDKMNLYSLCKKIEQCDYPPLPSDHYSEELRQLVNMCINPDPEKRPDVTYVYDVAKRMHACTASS

`CN1CCC(Oc2ccc(NC(=O)Nc3ccc(-c4cn(C5CC5)c5ncnc(N)c45)c4ccncc34)cc2C(F)(F)F)CC1` [Example I-10, 1-(5-(4-amino-7-cyclopropyl-7H-pyrrolo[2,3-d]pyrimidin-5-yl)isoquinolin-8-yl)-3-(4-((1-methylpiperidin-4-yl)oxy)-3-(trifluoromethyl)phenyl)urea] and `CCN1CCC(Oc2ccc(NC(=O)Nc3ccc(-c4cn(C5CC5)c5ncnc(N)c45)n4ccnc34)cc2C(F)(F)F)CC1` [Example I-38, 1-(5-(4-amino-7-cyclopropyl-7H-pyrrolo[2,3-d]pyrimidin-5-yl)imidazo[1,2-a]pyridin-8-yl)-3-(4-((1-ethylpiperidin-4-yl)oxy)-3-(trifluoromethyl)-phenyl)urea] cannot be ordered by IC50: under 200 nM for the first, under 200 nM for the second.

Compared with `Nc1ncnc2c1c(-c1ccc(NC(=O)Nc3cc(C4CC4)on3)c3nccn13)cn2C1CC1` [Example I-120, 1-(5-(4-amino-7-cyclopropyl-7H-pyrrolo[2,3-d]pyrimidin-5-yl)imidazo[1,2-a]pyridin-8-yl)-3-(5-cyclopropylisoxazol-3-yl)urea], `CC(C)c1cc(NC(=O)Nc2ccc(-c3cn(C4CC4)c4ncnc(N)c34)n3ccnc23)no1` [Example I-26, 1-(5-(4-amino-7-cyclopropyl-7H-pyrrolo[2,3-d]pyrimidin-5-yl)imidazo[1,2-a]pyridin-8-yl)-3-(5-isopropylisoxazol-3-yl)urea] is higher in IC50: under 200 nM for the first, 200 to 500 nM for the second. The first is the more potent here.

Compared with `CC1Cc2c(-c3cn(C4CC4)c4ncnc(N)c34)ccc(NC(=O)Nc3ccc(CN4CCN(C)CC4)c(C(F)(F)F)c3)c2O1` (centres unmarked) [Example I-57, 1-(4-(4-amino-7-cyclopropyl-7H-pyrrolo[2,3-d]pyrimidin-5-yl)-2-methyl-2,3-dihydro-benzofuran-7-yl)-3-(4-((4-methylpiperazin-1-yl)methyl)-3-(trifluoromethyl)phenyl)urea], `CN1CCN(Cc2ccc(NC(=O)Nc3ccc(-c4cn(C)c5ncnc(N)c45)n4ccnc34)cc2C(F)(F)F)CC1` [Example I-127, 1-(5-(4-amino-7-methyl-7H-pyrrolo[2,3-d]pyrimidin-5-yl)imidazo[1,2-a]pyridin-8-yl)-3-(4-((4-methylpiperazin-1-yl)methyl)-3-(trifluorometh-yl)phenyl)urea] is lower in IC50: 500 to 2000 nM for the first, under 200 nM for the second.

`CC(C)n1cc(-c2ccc(NC(=O)Nc3cc(C4(C(F)(F)F)CC4)on3)c3nccn23)c2c(N)ncnc21` [Example I-83, 1-(5-(4-amino-7-isopropyl-7H-pyrrolo[2,3-d]pyrimidin-5-yl)imidazo[1,2-a]pyridin-8-yl)-3-(5-(1-(trifluorometh-yl)cyclopropyl)isoxazol-3-yl)-urea] and `Nc1ncnc2c1c(-c1ccc(NC(=O)Nc3cc(C4(C(F)(F)F)CC4)on3)c3nccn13)cn2CCO` [Example I-85, 1-(5-(4-amino-7-(2-hydroxy-ethyl)-7H-pyrrolo[2,3-d]pyr-imidin-5-yl)imidazo[1,2-a]-pyridin-8-yl)-3-(5-(1-(tri-fluoromethyl)cyclopropyl)-isoxazol-3-yl)urea] cannot be ordered by IC50: under 200 nM for the first, under 200 nM for the second.

First: CC(C)(F)c1cc(NC(=O)Nc2ccc(-c3cn(C4CC4)c4ncnc(N)c34)n3ccnc23)on1 [Example I-20, 1-(5-(4-amino-7-cyclopropyl-7H-pyrrolo[2,3-d]pyrimidin-5-yl)imidazo[1,2-a]pyridin-8-yl)-3-(3-(2-fluoropropan-2-yl)isoxazol-5-yl)urea]
Second: CC1(c2cc(NC(=O)Nc3ccc(-c4cn(C5CC5)c5ncnc(N)c45)n4ccnc34)on2)CCC1 [Example I-19, 1-(5-(4-amino-7-cyclopropyl-7H-pyrrolo[2,3-d]pyrimidin-5-yl)imidazo[1,2-a]pyridin-8-yl)-3-(3-(1-methylcyclobutyl)-isoxazol-5-yl)urea]
The IC50 of the first is lower: under 200 nM for the first, 200 to 500 nM for the second. The first is the more potent here.

Molecule `Nc1ncnc2c1c(-c1ccc(NC(=O)Nc3cc(C4(C(F)(F)F)CC4)on3)c3nccn13)cn2C1CCC1` [Example I-84, 1-(5-(4-amino-7-cyclobutyl-7H-pyrrolo[2,3-d]pyrimidin-5-yl)imidazo[1,2-a]pyridin-8-yl)-3-(5-(1-(trifluoromethyl)-cyclopropyl)isoxazol-3-yl)urea] has an IC50 of under 200 nM.
